From article PMC7138307 (PLoS ONE, 2020)

Key:
TTBK1 = molecular target: T1, TTBK1 (Homo sapiens, UniProt Q5TCY1); test: TTBK biochemical (recombinant kinase) assay
T1 construct: TTBK1 1-479aa; SignalChem Catalog # T17-11G-05; purchased SignalChem T17-11G-05
Description: Final Kinase Activity conditions; 400 pM TTBK1 at ambient temperature in 25 mM Hepes, pH 7.5, 50 mM NaCl, 10 mM MgCl2, 0.02% Brij-35, 1 mM DTT, 10 uM ATP and 100 nM Ulight TOPO IIa peptide substrate ([sequence]). After a 2 hour incubation at 23 °C, the kinase reaction was quenched with 30 ul of 60 mM EDTA, and 2 nM Eu-anti- FDEKpTDDEDF antibody in 1X Lance Delfia Detection Buffer and incubated for one hour prior to detection with the EnVision Multilabel Reader (PerkinElmer). […] For compound inhibition, 15 ul of 800 pM TTBK1 was preincubated for 30 minutes with 300 nl of 100x compound stock in DMSO before initiation of the activity by addition of 15 ul of 2x Substrate Stock (200 nM peptide and 20 uM ATP).

[1] = system: tau phosphorylation following TTBK1 overexpression in HEK293 cells; test: Western blot of tau phosphorylation in HEK293 cells overexpressing TTBK1 and human Tau (2N4R) plus or minus staurosporine; type: cell-based; settings: 10μM, one hour
Description: However, it is unclear whether TTBK1 directly phosphorylates tau at these sites or whether it enhances the phosphorylation of tau through the activation of other kinases. […]; Fig 1A). […]. TTBK1 overexpression led to the increase in tau phosphorylation at several sites; some previously identified including S422, AT8 ([…]) and S198 as well as additional novel sites like AT180 (Thr231), PHF-13 (S396), S214, and S356 (Fig 1B and 1C). […].
Fig 1 TTBK1 overexpression leads to direct and indirect phosphorylation of Tau at disease-relevant sites. (A) Phylogenetic tree of the human kinome illustrating the biochemical IC50 for Staurosporine against various kinases (data compiled from Davis et al., 2011 in addition to internal data on the affinity of Staurosporine for TTBK1/TTBK2). […] TTBK1 overexpression caused a dramatic increase in the overall level of tau phosphorylation. […]. HEK293 cells obtained from American Type Culture Collection (ATCC, Manassas, VA) were cultured in Dulbecco's modified Eagle's medium (DMEM) supplemented with 10% fetal bovine serum (FBS), 10 units/ml penicillin, and 10μg/ml streptomycin (all reagents were purchased from Gibco, Waltham, MA). Cell cultures were maintained in a humidified 5% (v/v) CO2/air environment at 37°C. When the cells reached 50–80% confluence, they were transfected with a complex consisting of a 3:1 ratio of FuGENE 6 Transfection Reagent (Promega, Madison, WI) and plasmid DNA. Plasmid DNA was balanced out across reactions using an empty plasmid so that the same amount of DNA was added per well. This transfection complex was prepared following the manufacturers protocol and added directly to the cell media for 24 or 48 hours prior to lysis.
Samples were lysed in Pierce RIPA lysis and extraction buffer (Thermo Fisher Scientific, Waltham, MA) supplemented with 1% Halt protease and phosphatase inhibitor cocktail (Thermo Fisher Scientific, Waltham, MA) and centrifuged at 14000 x g for 20 min at 4°C to clear the lysate. Protein concentrations were determined using the Direct Detect Infrared Spectrometer (EMD Millipore Corp., Burlington, MA) and 10μg of each sample was denatured in 6X SDS sample buffer (Boston Bioproducts, Ashland, MA) for 7 minutes at 90°C. Proteins were loaded into a Criterion 7.5% tris-glycine gel (Bio-Rad, Hercules, CA) and separated by SDS-PAGE at 120V for 120 minutes. The gel was transferred to an IBlot2 nitrocellulose membrane (Invitrogen, Carlsbad, CA), blocked with TBST blocking buffer (Li-cor Biosciences, Lincoln, NE) for 1 hour, and washed three times with TBST. The membrane was probed with primary antibodies (1:1000 dilution) in antibody dilution buffer (1:1 TBST blocking buffer and 1X TBST) overnight at 4°C. The following antibodies were used for immunoblotting: TTBK1 (Cat# PA5-20686, Invitrogen, Carlsbad, CA), Tau-5 (Cat# ab80579, Abcam, Cambridge, UK), phospho-Tau S422 (Cat# ab79415, Abcam, Cambridge, UK), S198 (Cat# ab79540, Abcam, Cambridge, UK), AT8 S202/T205 (Cat# MN1020, Invitrogen, Carlsbad, CA), S214 (Cat# ab170892, Abcam, Cambridge, UK), AT180 T231 (Cat# MN1040, Invitrogen, Carlsbad, CA), S262 (Cat# ab131354, Abcam, Cambridge, UK), S356 (Cat# ab75603, Abcam, Cambridge, UK), S396 (Cat# ab109390, Abcam, Cambridge, UK), GAPDH (Cat# 5174S, Cell Signaling Technology, Danvers, MA), and β-actin (Cat# 926–42212, Li-cor Biosciences, Lincoln, NE). The blot was then washed in triplicate with TBST and incubated for 1 hour with secondary antibody (1:10,000 dilution of IRDye 800 anti-mouse IgG and IRDye 680 anti-rabbit IgG, Li-cor Biosciences, Lincoln, NE) in antibody dilution buffer. After a final triplicate wash with TBST, the blot was visualized using the Odyssey CLx imaging system (Li-cor Biosciences, Lincoln, NE).

T1 sequence (Q5TCY1 1-479): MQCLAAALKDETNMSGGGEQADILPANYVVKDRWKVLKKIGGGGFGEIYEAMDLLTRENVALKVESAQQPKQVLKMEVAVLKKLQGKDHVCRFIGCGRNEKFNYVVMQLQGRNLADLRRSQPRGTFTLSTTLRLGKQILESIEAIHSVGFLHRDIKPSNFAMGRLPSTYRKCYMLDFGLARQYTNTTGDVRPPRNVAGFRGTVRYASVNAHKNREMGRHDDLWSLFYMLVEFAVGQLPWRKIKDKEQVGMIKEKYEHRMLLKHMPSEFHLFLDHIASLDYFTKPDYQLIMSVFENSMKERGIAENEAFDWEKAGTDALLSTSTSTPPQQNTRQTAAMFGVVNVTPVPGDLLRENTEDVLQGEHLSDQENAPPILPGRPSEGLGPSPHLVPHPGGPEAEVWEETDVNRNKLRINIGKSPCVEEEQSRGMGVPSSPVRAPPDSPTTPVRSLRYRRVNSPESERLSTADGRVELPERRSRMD

CN[C@@H]1C[C@H]2O[C@@](C)([C@@H]1OC)n1c3ccccc3c3c4c(c5c6ccccc6n2c5c31)C(=O)NC4 [Staurosporine, staurosporine]
IC50 (TTBK1): > 30 µM | increase in tau phosphorylation at AT8 following TTBK1 overexpression [1]: not inhibited | increase in tau phosphorylation at S198 following TTBK1 overexpression [1]: not inhibited | increase in tau phosphorylation at S422 following TTBK1 overexpression [1]: not inhibited | phosphorylation of tau at AT180 [1]: reduced | phosphorylation of tau at S214 [1]: reduced | phosphorylation of tau at S356 [1]: reduced | phosphorylation of tau at S396 [1]: reduced
